This note sets out measurements from US20230233617A1, “METHODS FOR DIFFERENTIATING STEM CELLS INTO DOPAMINERGIC PROGENITOR CELLS” (JZ CELL TECHNOLOGIES AB, priority 2020, published 2023).

The assay deals with β-catenin. In words: β-CATENIN nuclear levels in cultures at 2 DDC. To be noted: dSMADi+SAG. In kind it is cell-based, human. The text has this:
FIG. 2: Specification of NSC with ventral midbrain identity using RA and SHH signaling. (a) Schematic of hPSCs differentiation with timeline of treatment with RA and activator of SHH signaling (SAG) (top). Immunocytochemistry for indicated markers at 9 DDC in cultures differentiated in dSMADi+SAG-condition and pulsed with RA for 1-, 2- or 4-days (bottom). (b) Relative gene expression (FPKM) of indicated genes in 9 DDC cultures differentiated in dSMADi+SAG-conditions and treated with RA for the indicated time. (c) Heatmap and hierarchical clustering of differentially expressed genes of 9 DDC cultures differentiated in dSMADi+SAG-condition and treated with RA for the indicated time. (d) Schematic of gene expression profiles defining distinct ventral progenitors in the diencephalon (Di), midbrain (MB) and hindbrain (HB) positions. (e) Expression of genes associated with the indicated regional progenitors at 14 DDC in cultures differentiated in dSMADi+SAG+RA^2D condition. (f) Immunocytochemistry for β-CATENIN (left) and boxplots of β-CATENIN nuclear levels (right) in cultures at 2 DDC differentiated in dSMADi+SAG-condition (control) and treated with RA or CHIR99021. Boxplot, whiskers define 5th and 95th percentile. Asterisks, Student t test; **p<0.01, ***p<0.001. (g) Immunocytochemistry for the indicated markers in cultures at 14 DDC differentiated in dSMADi+SAG+RA^2D condition. […]

Turning to `CC1=C(/C=C/C(C)=C/C=C/C(C)=C/C(=O)O)C(C)(C)CCC1` [RA, all-trans retinoic acid], the β-catenin in nuclei result is recorded as “no accumulation of β-catenin in nuclei”.
